For assay [1], the system named is MCF7. The assay is described as follows: Induction of cell cycle arrest in human MCF7 cells assessed as accumulation at G0/G1 phase at 0.05 uM after 24 hrs by 7-AAD staining-based flow cytometric analysis (reference value: 62.45%). The assay is classed as functional. In general terms: A flow cytometer gives signals particle by particle.
The test system of assay [2] is HCT-116. The assay is described as follows: Induction of apoptosis in human HCT116 cells assessed as viable cells at 0.1 uM after 24 hrs by Annexin-V and 7-AAD staining based flow cytometric analysis (reference value: 88.6%). It is filed as functional. The note with it: HCT-116, 24 h, read-out: Activity.
Assay [3] has as its system MCF7. The assay is described as follows: Induction of apoptosis in human MCF7 cells assessed as viable cells at 0.01 uM after 24 hrs by Annexin-V and 7-AAD staining based flow cytometric analysis (reference value: 90.2%). It is filed as functional. The note with it: MCF7, 24 h, read-out: Activity.
Assay [4] relates to MCF-10A. The assay is described as follows: Cytotoxicity against human MCF10A cells assessed as reduction in cell viability after 72 hrs by MTS assay.
Assay [5] has as its system MCF7. The assay is described as follows: Induction of apoptosis in human MCF7 cells assessed as necrotic cells at 0.005 uM after 24 hrs by Annexin-V and 7-AAD staining based flow cytometric analysis (reference value: 0.16%). It is filed as functional.
Assay [6] concerns MCF7. The assay is described as follows: Induction of cell cycle arrest in human MCF7 cells assessed as accumulation at G2/M phase at 0.05 uM after 24 hrs by 7-AAD staining-based flow cytometric analysis (reference value: 11.48%). The assay is classed as functional.
In assay [7] the test system is HCT-116. The assay is described as follows: Induction of apoptosis in human HCT116 cells assessed as late apoptotic cells at 0.05 uM after 24 hrs by Annexin-V and 7-AAD staining based flow cytometric analysis (reference value: 2.63%). It is filed as functional.
Assay [8] has as its system HCT-116. The assay is described as follows: Induction of apoptosis in human HCT116 cells assessed as necrotic cells at 0.005 uM after 24 hrs by Annexin-V and 7-AAD staining based flow cytometric analysis (reference value: 0.68%). The assay is classed as functional.
The test system of assay [9] is HCT-116. The assay is described as follows: Induction of apoptosis in human HCT116 cells assessed as viable cells at 0.05 uM after 24 hrs by Annexin-V and 7-AAD staining based flow cytometric analysis (reference value: 88.6%). The note with it: HCT-116, 24 h, read-out: Activity. The assay is classed as functional.
Assay [10] concerns HCT-116. The assay is described as follows: Induction of apoptosis in human HCT116 cells assessed as late apoptotic cells at 0.1 uM after 24 hrs by Annexin-V and 7-AAD staining based flow cytometric analysis (reference value: 2.63%). The assay is classed as functional.
The test system of assay [11] is MCF7. The assay is described as follows: Induction of cell cycle arrest in human MCF7 cells assessed as accumulation at S phase at 0.01 uM after 24 hrs by 7-AAD staining-based flow cytometric analysis (reference value: 26.07%). It is filed as functional.
Assay [12] has as its system HCT-116. The assay is described as follows: Induction of cell cycle arrest in human HCT116 cells assessed as accumulation at G2/M phase at 0.05 uM after 24 hrs by 7-AAD staining-based flow cytometric analysis (reference value: 12.26%). It is filed as functional.
Assay [13] relates to HCT-116. The assay is described as follows: Induction of cell cycle arrest in human HCT116 cells assessed as accumulation at G0/G1 phase at 0.1 uM after 24 hrs by 7-AAD staining-based flow cytometric analysis (reference value: 50.53%). It is filed as functional.
Assay [14] deals with MCF7. The assay is described as follows: Induction of cell cycle arrest in human MCF7 cells assessed as increase in accumulation at G2/M phase after 24 hrs by 7-AAD staining-based flow cytometric analysis. The assay is classed as functional.
The subject of assay [15] is MCF7. The assay is described as follows: Induction of apoptosis in human MCF7 cells assessed as early apoptotic cells at 0.005 uM after 24 hrs by Annexin-V and 7-AAD staining based flow cytometric analysis (reference value: 2.04%). It is filed as functional.
The test system of assay [16] is HCT-116. The assay is described as follows: Induction of apoptosis in human HCT116 cells after 24 hrs by Annexin-V and 7-AAD staining based flow cytometric analysis. It is filed as functional, cell-based.
The test system of assay [17] is MCF7. The assay is described as follows: Induction of apoptosis in human MCF7 cells assessed as early apoptotic cells at 0.01 uM after 24 hrs by Annexin-V and 7-AAD staining based flow cytometric analysis (reference value: 2.04%). It is filed as functional.
The test system of assay [18] is MCF7. The assay is described as follows: Induction of cell cycle arrest in human MCF7 cells assessed as accumulation at G0/G1 phase at 0.005 uM after 24 hrs by 7-AAD staining-based flow cytometric analysis (reference value: 62.45%). It is filed as functional.
The test system of assay [19] is MCF7. The assay is described as follows: Induction of apoptosis in human MCF7 cells assessed as late apoptotic cells at 0.05 uM after 24 hrs by Annexin-V and 7-AAD staining based flow cytometric analysis (reference value: 7.63%). It is filed as functional.

For the compound `CNC(=O)c1ccccc1Nc1nc(Nc2ccc(C(=O)N3CCN(C(=S)SCCN(C)C)CC3)cc2)ncc1C(F)(F)F`, the Activity in assay [1] was found to be 6.72%; in [5], 0.16%; in assay [6], 86.08%; in assay [7] it was 1.68%; in assay [8], 0.2%; in assay [10] it was 0.16%. Besides, the Activity in assay [11] is 8.75%; in assay [12] it was 87.56%; in [13] it was 5.14%; in [14] it was “Dose-dependent effect”; in assay [15], 9.11%; in assay [16], “Dose-dependent effect”. Besides, the Activity is 6.95% in assay [17], 41.93% in [18] and 25.7% in assay [19]. Moreover, in assay [2], the viability at 0.1 µM came out at 78.4%. The viability at 0.01 µM in assay [3] was 71.2%. Besides, the IC50 (usually the midpoint of a concentration-inhibition curve) in assay [4] is 280 nM. The viability at 0.05 µM in assay [9] came to 79.3%.

The values above are taken from ChEMBL document CHEMBL4350989, “Discovery of 2,4-diarylaminopyrimidine derivatives bearing dithiocarbamate moiety as novel FAK inhibitors with antitumor and anti-angiogenesis activities” (Eur J Med Chem, 2019).
